In patent publication US20090270394A1, “CYCLYLAMINE DERIVATIVES AS CALCIUM CHANNEL BLOCKERS” (priority 2008, published 2009):

Target: T1, Human Cav2.2 channels (Homo sapiens, UniProt Q00975)
T1 construct: expressed in transfected cells
Test: Fluorescent assay for Cav2.2 channels using potassium depolarization to initiate channel opening
Assay type: cell-based
Conditions: for inhibition at 10 µM: 10 μM compound, read-out: Cav 2.2 Activity % Inh at 10 μM; for inhibition at 30 µM: 30 μM compound, read-out: Cav 2.2 Activity % Inh at 30 μM; for IC50: 30 mM K (block of open and inactivated channels), read-out: Cav 2.2 Activity IC50 at 30 mM K
Procedure, shortened: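 HEK293 cells stably expressing human Cav2.2 with alpha2-delta and beta subunits plus Kir2.3, dye-loaded, then held 30 min at 25° C. in 4, 12, 25 or 30 mM K+ pre-polarization buffer with compound.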

T1 sequence (Q00975 whole entry): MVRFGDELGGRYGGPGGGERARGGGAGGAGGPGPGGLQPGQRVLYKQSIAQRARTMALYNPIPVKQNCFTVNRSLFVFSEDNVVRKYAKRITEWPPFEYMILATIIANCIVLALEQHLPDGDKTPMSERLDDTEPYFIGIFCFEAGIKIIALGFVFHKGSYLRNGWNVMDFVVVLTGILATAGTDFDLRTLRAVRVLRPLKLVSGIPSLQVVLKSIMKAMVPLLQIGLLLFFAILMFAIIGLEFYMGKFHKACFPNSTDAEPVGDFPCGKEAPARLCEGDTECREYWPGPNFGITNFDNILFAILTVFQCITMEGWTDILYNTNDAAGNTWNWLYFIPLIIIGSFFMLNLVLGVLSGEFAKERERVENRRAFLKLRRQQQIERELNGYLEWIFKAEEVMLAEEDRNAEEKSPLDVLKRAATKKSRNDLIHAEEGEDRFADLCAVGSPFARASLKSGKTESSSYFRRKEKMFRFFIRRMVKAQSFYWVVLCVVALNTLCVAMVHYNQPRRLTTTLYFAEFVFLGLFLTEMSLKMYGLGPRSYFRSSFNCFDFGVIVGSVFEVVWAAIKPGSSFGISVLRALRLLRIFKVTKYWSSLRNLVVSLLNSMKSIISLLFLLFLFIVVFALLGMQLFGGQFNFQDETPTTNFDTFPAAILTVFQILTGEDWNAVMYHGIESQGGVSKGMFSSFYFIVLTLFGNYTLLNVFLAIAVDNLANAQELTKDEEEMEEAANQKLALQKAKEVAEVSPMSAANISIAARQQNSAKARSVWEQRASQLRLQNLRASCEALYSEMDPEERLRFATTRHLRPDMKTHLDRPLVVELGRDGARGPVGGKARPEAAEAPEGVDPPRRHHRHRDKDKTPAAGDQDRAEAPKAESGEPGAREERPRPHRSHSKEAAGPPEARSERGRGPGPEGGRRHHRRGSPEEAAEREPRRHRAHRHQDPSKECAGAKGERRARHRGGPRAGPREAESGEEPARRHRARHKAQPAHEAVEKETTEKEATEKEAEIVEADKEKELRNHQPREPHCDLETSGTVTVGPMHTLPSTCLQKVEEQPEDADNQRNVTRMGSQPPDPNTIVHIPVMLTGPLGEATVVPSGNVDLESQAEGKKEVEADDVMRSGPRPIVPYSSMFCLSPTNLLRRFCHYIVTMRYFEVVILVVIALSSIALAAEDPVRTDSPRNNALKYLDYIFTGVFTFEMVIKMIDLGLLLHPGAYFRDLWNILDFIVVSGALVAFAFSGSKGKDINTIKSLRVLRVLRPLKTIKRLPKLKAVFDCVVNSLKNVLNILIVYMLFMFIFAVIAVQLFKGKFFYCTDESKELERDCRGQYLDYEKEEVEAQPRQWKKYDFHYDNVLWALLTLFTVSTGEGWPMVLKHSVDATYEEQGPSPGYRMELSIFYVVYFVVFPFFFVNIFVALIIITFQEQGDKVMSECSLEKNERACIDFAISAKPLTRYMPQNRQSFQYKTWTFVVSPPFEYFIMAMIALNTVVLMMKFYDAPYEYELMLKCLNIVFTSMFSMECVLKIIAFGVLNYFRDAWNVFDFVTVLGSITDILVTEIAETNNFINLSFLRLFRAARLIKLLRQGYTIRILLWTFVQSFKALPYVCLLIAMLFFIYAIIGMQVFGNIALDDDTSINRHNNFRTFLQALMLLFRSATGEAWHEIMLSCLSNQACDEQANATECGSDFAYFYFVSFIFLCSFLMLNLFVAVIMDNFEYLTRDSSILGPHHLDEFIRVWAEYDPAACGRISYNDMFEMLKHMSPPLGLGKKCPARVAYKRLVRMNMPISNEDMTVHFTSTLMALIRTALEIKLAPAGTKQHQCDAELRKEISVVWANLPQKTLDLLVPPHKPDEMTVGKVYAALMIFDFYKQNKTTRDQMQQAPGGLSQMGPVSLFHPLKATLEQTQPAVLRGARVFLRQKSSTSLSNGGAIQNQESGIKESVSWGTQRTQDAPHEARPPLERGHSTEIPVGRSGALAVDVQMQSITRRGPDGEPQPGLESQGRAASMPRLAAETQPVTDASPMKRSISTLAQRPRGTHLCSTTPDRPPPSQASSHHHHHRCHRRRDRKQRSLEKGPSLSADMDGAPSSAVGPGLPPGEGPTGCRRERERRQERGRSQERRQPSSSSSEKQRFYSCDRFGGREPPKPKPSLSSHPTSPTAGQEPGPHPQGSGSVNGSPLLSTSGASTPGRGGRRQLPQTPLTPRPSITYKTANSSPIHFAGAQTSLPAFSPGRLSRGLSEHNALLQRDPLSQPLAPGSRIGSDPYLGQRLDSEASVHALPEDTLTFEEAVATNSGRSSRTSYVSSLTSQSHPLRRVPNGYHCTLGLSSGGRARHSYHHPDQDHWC
T1 sequence (P54289 25-1103 partner): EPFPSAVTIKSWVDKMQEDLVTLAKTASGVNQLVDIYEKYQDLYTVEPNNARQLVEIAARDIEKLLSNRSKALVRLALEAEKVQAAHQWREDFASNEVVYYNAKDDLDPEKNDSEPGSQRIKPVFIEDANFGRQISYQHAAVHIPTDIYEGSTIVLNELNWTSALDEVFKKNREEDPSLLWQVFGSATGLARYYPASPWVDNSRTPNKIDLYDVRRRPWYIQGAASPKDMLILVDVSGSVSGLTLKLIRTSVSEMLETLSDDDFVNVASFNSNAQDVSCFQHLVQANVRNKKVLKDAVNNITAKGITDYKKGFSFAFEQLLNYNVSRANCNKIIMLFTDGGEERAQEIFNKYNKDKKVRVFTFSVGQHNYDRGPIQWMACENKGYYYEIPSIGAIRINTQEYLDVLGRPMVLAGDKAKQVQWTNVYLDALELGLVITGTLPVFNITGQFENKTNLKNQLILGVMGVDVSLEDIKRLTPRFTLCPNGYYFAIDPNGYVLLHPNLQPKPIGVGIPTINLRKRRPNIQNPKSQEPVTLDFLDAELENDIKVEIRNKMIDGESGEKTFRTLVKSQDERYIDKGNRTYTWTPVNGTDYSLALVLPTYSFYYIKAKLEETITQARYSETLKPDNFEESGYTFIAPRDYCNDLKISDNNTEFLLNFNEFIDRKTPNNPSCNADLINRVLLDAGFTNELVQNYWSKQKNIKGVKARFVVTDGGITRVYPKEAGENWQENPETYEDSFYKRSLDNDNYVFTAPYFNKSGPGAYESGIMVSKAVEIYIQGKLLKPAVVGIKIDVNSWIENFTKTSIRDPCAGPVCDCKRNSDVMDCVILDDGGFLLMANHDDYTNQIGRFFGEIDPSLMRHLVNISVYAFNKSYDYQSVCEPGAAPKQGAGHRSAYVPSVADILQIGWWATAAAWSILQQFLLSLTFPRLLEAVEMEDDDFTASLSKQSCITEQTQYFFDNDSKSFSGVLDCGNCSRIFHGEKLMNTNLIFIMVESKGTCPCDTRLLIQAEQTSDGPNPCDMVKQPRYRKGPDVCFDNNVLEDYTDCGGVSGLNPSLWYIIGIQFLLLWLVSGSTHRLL
T1 sequence (P54284 whole entry partner): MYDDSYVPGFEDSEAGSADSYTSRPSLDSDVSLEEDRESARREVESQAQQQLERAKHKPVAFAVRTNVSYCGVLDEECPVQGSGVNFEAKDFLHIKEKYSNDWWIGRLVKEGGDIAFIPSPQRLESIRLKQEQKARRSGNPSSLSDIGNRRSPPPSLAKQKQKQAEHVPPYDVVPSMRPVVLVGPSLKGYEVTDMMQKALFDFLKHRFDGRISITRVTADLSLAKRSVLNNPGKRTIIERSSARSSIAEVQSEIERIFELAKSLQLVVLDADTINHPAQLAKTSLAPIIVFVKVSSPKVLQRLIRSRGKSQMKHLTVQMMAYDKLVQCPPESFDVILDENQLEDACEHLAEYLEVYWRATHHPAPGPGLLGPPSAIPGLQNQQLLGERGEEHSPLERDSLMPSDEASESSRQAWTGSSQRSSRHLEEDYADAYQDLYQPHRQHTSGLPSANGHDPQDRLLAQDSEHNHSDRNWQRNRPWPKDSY

Row | inhibition at 10 µM [%] | inhibition at 30 µM [%] | IC50 [µM] | Structure (SMILES)
1 | 48.7 | 66.9 | 0.574 | CN(C)c1ccc(CNC(=O)C2(NC(=O)c3cc(C(C)(C)C)nc(C(C)(C)C)c3)CCCCC2)cc1 [Compound 77, 2,6-di-tert-butyl-N-(1-(4-(dimethylamino)benzylcarbamoyl)cyclohexyl)isonicotinamide]
2 | 92.6 | 101 | 0.0709 | COc1c(C(C)(C)C)cc(C(=O)NC2(C(=O)N3CCN(c4ccccc4)CC3)CCCCC2)cc1C(C)(C)C [Compound 82, 3,5-di-tert-butyl-4-methoxy-N-(1-(4-phenylpiperazine-1-carbonyl)cyclohexyl)benzamide]
3 | 97.2 | 100 | 0.134 | COc1c(C(C)(C)C)cc(C(=O)NC2(C(=O)N3CCN(Cc4ccccc4)CC3)CCCCC2)cc1C(C)(C)C [Compound 83, N-(1-(4-benzylpiperazine-1-carbonyl)cyclohexyl)-3,5-di-tert-butyl-4-methoxybenzamide]
4 | 102 | 104 | 0.00604 | COc1c(C(C)(C)C)cc(C(=O)NC2(C(=O)NCc3nccs3)CCCCC2)cc1C(C)(C)C [Compound 87, 3,5-di-tert-butyl-4-methoxy-N-(1-(thiazol-2-ylmethylcarbamoyl)cyclohexyl)benzamide]
5 | 96.3 | 96.7 | 0.0142 | COc1c(C(C)(C)C)cc(C(=O)NC2(C(=O)NCc3cnc(C)cn3)CCCCC2)cc1C(C)(C)C [Compound 88, 3,5-di-tert-butyl-4-methoxy-N-(1-((5-methylpyrazin-2-yl)methylcarbamoyl)cyclohexyl)benzamide]
6 | 95.3 | 96.1 | 0.148 | Cc1cnc(CNC(=O)C2(NC(=O)c3cc(C(C)(C)C)nc(C(C)(C)C)c3)CCCC2)cn1 [Compound 91, 2,6-di-tert-butyl-N-(1-((5-methylpyrazin-2-yl)methylcarbamoyl)cyclopentyl)isonicotinamide]
7 |  |  | 0.154 | CC(C)(C)c1cc(C(=O)NC2(C(=O)NCc3ccncc3)CCCCC2)cc(C(C)(C)C)n1 [Compound 100, 2,6-di-tert-butyl-N-(1-(pyridin-4-ylmethylcarbamoyl)cyclohexyl)isonicotinamide]
8 |  |  | 0.105 | CNC(=O)C1(NC(=O)c2cc(C(C)(C)C)nc(C(C)(C)C)c2)CCCCC1 [Compound 101, 2,6-di-tert-butyl-N-(1-(methylcarbamoyl)cyclohexyl)isonicotinamide]
9 |  |  | 0.0653 | CC(C)(C)c1cc(C(=O)NC2(C(=O)NCc3cccnc3)CCCCC2)cc(C(C)(C)C)c1 [Compound 103, 3,5-di-tert-butyl-N-(1-(pyridin-3-ylmethylcarbamoyl)cyclohexyl)benzamide]
10 |  |  | 1.02 | COc1c(C(C)(C)C)cc(C(=O)NC2(C(=O)N3CCN(C)CC3)CCCCC2)cc1C(C)(C)C [Compound 104, 3,5-di-tert-butyl-4-methoxy-N-(1-(4-methylpiperazine-1-carbonyl)cyclohexyl)benzamide]

Further lines, the compound ahead of its results:

Row | Structure (SMILES) | inhibition at 10 µM [%] | inhibition at 30 µM [%] | IC50 [µM]
11 | Cc1cc(CNC(=O)C2(NC(=O)c3cc(C(C)(C)C)nc(C(C)(C)C)c3)CCCCC2)nn1C [Compound 78, 2,6-di-tert-butyl-N-(1-((1,5-dimethyl-1H-pyrazol-3-yl)methylcarbamoyl)cyclohexyl)isonicotinamide] | 79.5 | 88.6 | 0.0245
12 | Cc1cc(CNC(=O)C2(NC(=O)c3cc(C(C)(C)C)nc(C(C)(C)C)c3)CCCCC2)no1 [Compound 79, 2,6-di-tert-butyl-N-(1-((5-methylisoxazol-3-yl)methylcarbamoyl)cyclohexyl)isonicotinamide] | 97.8 | 101 | 0.0433
13 | CC(C)(C)c1cc(C(=O)NC2(C(=O)NCc3nccs3)CCCCC2)cc(C(C)(C)C)n1 [Compound 80, 2,6-di-tert-butyl-N-(1-(thiazol-2-ylmethylcarbamoyl)cyclohexyl)isonicotinamide] | 98.4 | 104 | 0.106
14 | Cc1cnc(CNC(=O)C2(NC(=O)c3cc(C(C)(C)C)nc(C(C)(C)C)c3)CCCCC2)cn1 [Compound 81, 2,6-di-tert-butyl-N-(1-((5-methylpyrazin-2-yl)methylcarbamoyl)cyclohexyl)isonicotinamide] | 87.8 | 93.3 | 0.0535
15 | COc1c(C(C)(C)C)cc(C(=O)NC2(C(=O)NCc3ccc(N(C)C)cc3)CCCCC2)cc1C(C)(C)C [Compound 84, 3,5-di-tert-butyl-N-(1-(4-(dimethylamino)benzylcarbamoyl)cyclohexyl)-4-methoxybenzamide] | 25.6 | 53.5 | 
16 | COc1c(C(C)(C)C)cc(C(=O)NC2(C(=O)NCc3cc(C)n(C)n3)CCCCC2)cc1C(C)(C)C [Compound 85, 3,5-di-tert-butyl-N-(1-((1,5-dimethyl-1H-pyrazol-3-yl)methylcarbamoyl)cyclohexyl)-4-methoxybenzamide] | 87.7 | 93.2 | 0.0267
17 | COc1c(C(C)(C)C)cc(C(=O)NC2(C(=O)NCc3cc(C)on3)CCCCC2)cc1C(C)(C)C [Compound 86, 3,5-di-tert-butyl-4-methoxy-N-(1-((5-methylisoxazol-3-yl)methylcarbamoyl)cyclohexyl)benzamide] | 99.1 | 104 | 0.00957
18 | COc1ccc(CNC(=O)C2(NC(=O)c3cc(C(C)(C)C)nc(C(C)(C)C)c3)CCCC2)cc1 [Compound 89, 2,6-di-tert-butyl-N-(1-(4-methoxybenzylcarbamoyl)cyclopentyl)isonicotinamide] | 90.8 | 100 | 0.0546
19 | CC(C)(C)c1cc(C(=O)NC2(C(=O)N3CCCC3)CCCC2)cc(C(C)(C)C)n1 [Compound 92, 2,6-di-tert-butyl-N-(1-(pyrrolidine-1-carbonyl)cyclopentyl)isonicotinamide] | 89.5 | 92.2 | 0.225
20 | CN1CCN(C(=O)C2(NC(=O)c3cc(C(C)(C)C)nc(C(C)(C)C)c3)CCCC2)CC1 [Compound 93, 2,6-di-tert-butyl-N-(1-(4-methylpiperazine-1-carbonyl)cyclopentyl)isonicotinamide] | 83.9 | 85.5 | 0.856
21 | CC(C)(C)c1cc(C(=O)NC2(C(=O)N3CCOCC3)CCCC2)cc(C(C)(C)C)n1 [Compound 94, 2,6-di-tert-butyl-N-(1-(morpholine-4-carbonyl)cyclopentyl)isonicotinamide] | 96.6 | 87.2 | 0.329
22 | CC(C)(C)c1cc(C(=O)NC2(C(=O)NCc3ccccc3)CCCC2)cc(C(C)(C)C)n1 [Compound 95, N-(1-(benzylcarbamoyl)cyclopentyl)-2,6-di-tert-butylisonicotinamide] | 94.6 | 101 | 0.132
23 | COc1c(C(C)(C)C)cc(C(=O)NC2(C(=O)Nc3ccccc3)CCCCC2)cc1C(C)(C)C [Compound 96, 3,5-di-tert-butyl-4-methoxy-N-(1-(phenylcarbamoyl)cyclohexyl)benzamide] | 77.7 | 82.6 | 0.161
24 | CN1CCC(NC(=O)c2cc(C(C)(C)C)nc(C(C)(C)C)c2)(C(=O)NCc2ccccc2)CC1 [Compound 97, N-(4-(benzylcarbamoyl)-1-methylpiperidin-4-yl)-2,6-di-tert-butylisonicotinamide] | 76 | 90.6 | 1.07
25 | CC(C)(C)c1cc(C(=O)NC2(C(=O)N3CCOCC3)CCCCC2)cc(C(C)(C)C)n1 [Compound 98, 2,6-di-tert-butyl-N-(1-(morpholine-4-carbonyl)cyclohexyl)isonicotinamide] |  |  | 0.248
26 | CC(C)(C)c1cc(C(=O)NC2(C(=O)NCCCN3CCOCC3)CCCCC2)cc(C(C)(C)C)n1 [Compound 99, 2,6-di-tert-butyl-N-(1-(3-morpholinopropylcarbamoyl)cyclohexyl)isonicotinamide] |  |  | 0.7
27 | CC(C)(C)c1cc(C(=O)NC2(C(=O)NCCCN3CCOCC3)CCCCC2)cc(C(C)(C)C)c1 [Compound 102, 3,5-di-tert-butyl-N-(1-(3-morpholinopropylcarbamoyl)cyclohexyl)benzamide] |  |  | 0.253
28 | COc1c(C(C)(C)C)cc(C(=O)NC2(C(=O)NCCCN3CCOCC3)CCCCC2)cc1C(C)(C)C [Compound 105, 3,5-di-tert-butyl-4-methoxy-N-(1-(3-morpholinopropylcarbamoyl)cyclohexyl)benzamide] |  |  | 0.704
29 | CC(C)(C)c1cc(C(=O)NC2(C(=O)NCc3ccc(S(C)(=O)=O)cc3)CCCCC2)cc(C(C)(C)C)n1 [Compound 106, 2,6-di-tert-butyl-N-(1-(4-(methylsulfonyl)benzylcarbamoyl)cyclohexyl)isonicotinamide] |  |  | 0.317
30 | CC(C)(C)c1cc(C(=O)NC2(C(=O)NCc3ccc(S(C)(=O)=O)cc3)CCCCC2)cc(C(C)(C)C)c1 [Compound 107, 3,5-di-tert-butyl-N-(1-(4-(methylsulfonyl)benzylcarbamoyl)cyclohexyl)benzamide] |  |  | 0.143
31 | COc1c(C(C)(C)C)cc(C(=O)NC2(C(=O)NCc3ccc(S(C)(=O)=O)cc3)CCCCC2)cc1C(C)(C)C [Compound 108, 3,5-di-tert-butyl-4-methoxy-N-(1-(4-(methylsulfonyl)benzylcarbamoyl)cyclohexyl)benzamide] |  |  | 0.0816
32 | COc1ccc(CNC(=O)C2(NC(=O)c3cc(C(C)(C)C)c(O)c(C(C)(C)C)c3)CC2)cc1 [Compound 109, 3,5-di-tert-butyl-4-hydroxy-N-(1-(4-methoxybenzylcarbamoyl)cyclopropyl)benzamide] | 29.8 | 40 | 0.0877
